Assay results reported in patent US9011863B2, “Combinations of kinase inhibitors for the treatment of cancer” (Exelixis, Inc., priority 2010, dated 2015).
Where two headings read alike, the source gives them in different places.

Columns and labels:
[1] = target: p110α catalytic subunit of PI3K (Homo sapiens, UniProt P42336); test: in vitro PI3K assay (PI3K-induced ATP consumption); format: biochemical; conditions: read-out: in vitro IC50 against p110α
Text: Compounds of formula I have been tested using the assay described in Biological Example 1 of WO2007044729 and have been determined to be PI3K inhibitors. As such, compounds of formula I are useful for treating diseases, particularly cancer in which PI3K activity contributes to the pathology and/or symptomatology of the disease. For example, cancer in which PI3K activity contributes to its pathology and/or symptomatology include breast cancer, colon cancer, rectal cancer, endometrial cancer, gastric carcinoma, glioblastoma, hepatocellular carcinoma, small cell lung cancer, non-small cell lung cancer, melanoma, ovarian cancer, pancreatic cancer, prostate carcinoma, acute myelogenous leukemia (AML), chronic myelogenous leukemia (CML), and thyroid carcinoma, and the like.
Suitable in vitro assays for measuring PI3K activity and the inhibition thereof by compounds are known. Typically, the assay will measure PI3K-induced ATP consumption. […] Cellular activity can be determined using assays as described in Biological Examples 2, 3, and 4 of WO2007044729. […]
The purpose of the present study is to identify kinases and kinase-regulated signaling pathways that compensate for PI3K inhibition in human breast cancer cells. […] Gene expression from three independent experiments was measured using the Gene titan 3′ microarray. *, p<0.05; **, p<0.01 versus 0 hours, as shown in FIG. 5. […]

[2] = system: subcutaneous A-549 human lung xenografts; test: antitumor activity in A549 xenografts; format: in vivo, Swiss nude mice; conditions: for activity rating: compound A at 30 mg/kg PO daily (text), 30 mg/kg
Text: Control groups were left untreated.
Animal body weights included the tumor weights.

FoxO1 and FoxO3a = test: cytoplasmic and nuclear fractionation, FoxO immunoblot; format: cell-based, human; conditions: BT474 and MDA453; 6 μM compound A or 2 μM 5J8; 4 hours
Experimental: Nuclear (Nu) and cytoplasmic (Cy) extracts were isolated and subjected to immunoblotting with FoxO1 and FoxO3a antibodies. Loading controls for Nu: HDAC3; for Cy: RhoA (BT474) and MEK1/2 (MDA453).
Cytoplasmic and nuclear extracts were prepared using the Nuclear Extract Kit from Active Motif. Briefly, cells were plated in 100-mm dishes, treated with inhibitors at the indicated concentrations for 3-4 hours, washed with ice-cold PBS/phosphatase inhibitors, lysed in hypotonic buffer and centrifuged for 30 seconds at 14,000 rpm at 4° C. to collect the supernatant (cytoplasmic extract). The pellet (nuclear fraction) was resuspended in complete lysis buffer and centrifuged for 10 minutes at 14,000 rpm at 4° C. to collect the supernatant (nuclear fraction).

[3] = Description: The lung cancer cell line A549 was selected for this study. […] Lung A549 cells were implanted s.c. in female Swiss nude mice using standard techniques. […] Control groups were left untreated. […]
For the evaluation of anti-tumor activity of conjugates, animals were weighed daily and tumors were measured twice weekly by caliper. A dosage producing a 20% weight loss at nadir (mean of group) or a 15% weight loss (mean of group) three successive times or drug deaths, was considered an excessively toxic dosage. Animal body weights included the tumor weights. Tumor weights were calculated using the formula mass (mg)=[length (mm)×width (mm)2]/2. The primary efficacy end points are ΔT/ΔT, percent median regression, partial and complete regressions (PR and CR), and Tumor free survivors (TFS). Changes in tumor volume for each treated (T) and control (C) were calculated for each tumor by subtracting the tumor volume on the day of first treatment (staging day) from the tumor volume on the specified observation day. The median ΔT was calculated for the treated group, and the median ΔT was calculated for the control group. Then the ratio ΔT/ΔT was calculated and expressed as a percentage: ΔT/ΔT=(delta T/delta C)×100. A dose is considered therapeutically active when ΔT/ΔT is lower than 40% and very active when ΔT/ΔT is lower than 10%. […] Percent tumor regression is defined as the percent of tumor volume decrease in the treated group at a specified observation day compared to its volume on the first day of first treatment. At a specific time point and for each animal, percent regression is calculated. The median percent regression is then calculated for the group. % regression (at t)=[volumet0−volumet/volument0]×100. Partial regression (PR): Regressions are defined as partial if the tumor volume decreases to 50% of the tumor volume at the start of treatment. Complete regression (CR): Complete regression is achieved when tumor volume=0 mm^3 (CR is considered when tumor volume cannot be recorded). TFS: Tumor free is defined as the animals with undetectable tumors at the end of the study (>100 days post last treatment).

[4] = Compound A PO 5 (160) mg/kg Q1Dx32
[5] = Compound A PO 100 (3200) mg/kg Q1Dx32
[6] = Compound A PO 100 (3200) mg/kg Q1Dx32, listed as compound A
[7] = compound A at 30 mg/kg PO daily

p110α catalytic subunit of PI3K, sequence (P42336 whole entry): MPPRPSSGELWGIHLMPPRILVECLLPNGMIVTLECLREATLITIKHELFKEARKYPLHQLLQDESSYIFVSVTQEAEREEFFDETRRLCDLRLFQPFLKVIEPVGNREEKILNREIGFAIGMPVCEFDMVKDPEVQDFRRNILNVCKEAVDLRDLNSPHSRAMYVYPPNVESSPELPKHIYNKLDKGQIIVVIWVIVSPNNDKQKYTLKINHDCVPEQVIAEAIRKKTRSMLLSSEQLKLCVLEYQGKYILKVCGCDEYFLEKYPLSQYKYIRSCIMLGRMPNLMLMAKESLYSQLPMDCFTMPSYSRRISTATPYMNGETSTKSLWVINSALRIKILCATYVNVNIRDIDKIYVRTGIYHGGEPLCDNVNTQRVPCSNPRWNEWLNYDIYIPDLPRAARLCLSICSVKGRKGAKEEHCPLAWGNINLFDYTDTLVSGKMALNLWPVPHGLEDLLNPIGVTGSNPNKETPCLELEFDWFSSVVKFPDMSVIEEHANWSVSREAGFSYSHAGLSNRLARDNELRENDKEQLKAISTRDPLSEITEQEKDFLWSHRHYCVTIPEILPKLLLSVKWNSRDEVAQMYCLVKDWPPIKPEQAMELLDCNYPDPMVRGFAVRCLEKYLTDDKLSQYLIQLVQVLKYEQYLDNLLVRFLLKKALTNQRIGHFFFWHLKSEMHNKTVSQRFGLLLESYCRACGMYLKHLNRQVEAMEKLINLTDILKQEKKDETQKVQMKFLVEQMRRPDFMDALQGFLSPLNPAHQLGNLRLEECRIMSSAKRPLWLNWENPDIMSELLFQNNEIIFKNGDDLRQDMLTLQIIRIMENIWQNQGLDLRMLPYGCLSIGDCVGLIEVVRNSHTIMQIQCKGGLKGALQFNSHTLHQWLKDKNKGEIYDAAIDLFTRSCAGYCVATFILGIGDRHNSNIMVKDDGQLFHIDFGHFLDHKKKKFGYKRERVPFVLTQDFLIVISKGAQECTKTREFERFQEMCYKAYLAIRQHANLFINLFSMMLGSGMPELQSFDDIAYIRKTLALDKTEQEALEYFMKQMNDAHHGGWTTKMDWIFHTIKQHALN
p110α catalytic subunit of PI3K, sequence (P27986 whole entry partner): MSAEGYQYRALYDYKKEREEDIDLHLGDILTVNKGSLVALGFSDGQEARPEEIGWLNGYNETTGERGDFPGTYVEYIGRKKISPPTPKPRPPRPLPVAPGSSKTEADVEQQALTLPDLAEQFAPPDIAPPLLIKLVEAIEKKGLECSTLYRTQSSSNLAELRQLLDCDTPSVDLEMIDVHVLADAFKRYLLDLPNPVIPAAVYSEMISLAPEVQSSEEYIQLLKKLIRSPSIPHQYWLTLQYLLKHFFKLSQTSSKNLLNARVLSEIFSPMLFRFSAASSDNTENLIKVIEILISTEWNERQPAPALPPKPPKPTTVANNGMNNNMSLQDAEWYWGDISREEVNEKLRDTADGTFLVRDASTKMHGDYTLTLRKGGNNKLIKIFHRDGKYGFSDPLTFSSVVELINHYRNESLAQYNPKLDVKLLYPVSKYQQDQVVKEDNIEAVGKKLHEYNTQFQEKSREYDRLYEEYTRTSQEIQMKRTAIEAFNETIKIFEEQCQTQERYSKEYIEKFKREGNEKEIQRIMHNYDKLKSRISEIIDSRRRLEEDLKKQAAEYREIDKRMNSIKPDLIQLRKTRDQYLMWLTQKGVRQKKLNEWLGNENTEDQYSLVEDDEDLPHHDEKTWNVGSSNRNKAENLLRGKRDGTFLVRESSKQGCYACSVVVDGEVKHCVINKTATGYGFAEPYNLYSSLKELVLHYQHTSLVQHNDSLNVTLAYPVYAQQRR

## COc1ccc(Cl)c(Nc2nc3ccccc3nc2NS(=O)(=O)c2cccc(NC(=O)C(C)(C)N)c2)c1 [Compound A]
[1]
  IC50: 39 nM
[2]; [4]
  Biological response at day 68: Very
  Median ΔT/ΔC in % day 68: 5%
[2]; [5]
  Biological response at day 68: highly active
  Median % of regression on day 68: 15%
  Median ΔT/ΔC in % day 68: −4%
[2]; [6]
  Biological response at day 68: high activity
[2]; [7]
  ΔT/ΔC (treated vs control tumor volume change): 5%
[2]
  activity rating: very active
[2]; listed as compound A
  activity rating: high activity
FoxO1 and FoxO3a
  subcellular distribution of FoxO1 and FoxO3a: accumulation of both FoxO factors in the nucleus of BT474 and MDA453 cells
[3]; [4]
  Average body weight change in % per mouse at nadir: −7.34%
  Drug death (Day of death): 0/7
  day of nadir: 65 days
[3]; [5]
  Average body weight change in % per mouse at nadir: −10.25%
  Drug death (Day of death): 0/7
  day of nadir: 65 days
[3]; [6]
  Average body weight change in % per mouse at nadir: −10.3%
[3]; [7]
  body weight loss at nadir: −7.3%
